Assay results from patent US20220401482A1, “GENERATION OF CD38 KNOCK-OUT PRIMARY AND EXPANDED HUMAN NK CELLS” (RESEARCH INSTITUTE AT NATIONWIDE CHILDREN'S HOSPITAL, priority 2019, published 2022).

Legend:
[1] = tested on: NK cells; conditions: patients; cited from earlier work
[2] = tested on: H929 cell line; assay: Flow-based cytotoxicity assay; format: cell-based, human; conditions: absence of NK cells and complement, DARA 10 μg/ml, 4 hours
Experimental: FIGS. 11A-11D show resistance of CD16^KO NK cells to DARA-induced fratricide.
(§1) To assess ADCC, MM cell lines or purified primary CD138^+ MM cells were labeled with 5 μM of CFSE and co-cultured with CD38^WT or CD38^KO NK cells at the indicated effector-to-target (E:T) ratios in flat bottom 96-well plates (Falcon, USA) in the presence of 10 μg/ml of DARA or solvent as control^38. […] The viability of target cells was analyzed after 4 hours for MM cell lines, and 24 hours for primary samples. In some experiments, myeloma cell lines were pretreated with 50 nM of ATRA for 2 days prior to 4-hour cytotoxicity assay. To study the effect of ATRA on overall DARA-mediated NK cell cytotoxicity, MM cells and NK cells were co-cultured for 48 hours in the presence of DARA and 50 nM of ATRA. Viable target cells were assessed from the percent or absolute number of 7-AAD negative/CFSE positive cells among total CFSE positive cells or using beads. Background was determined from the target cells incubated in the absence of effector cells and DARA. The percentage of DARA-mediated ADCC (%) was calculated according to the formula: (1−the percent or absolute number of viable target cells in the presence of effector cells with DARA/that of the corresponding sample with solvent control)×100. All assays were performed in triplicate with 2 or 3 independent donors.

[3] = tested on: CD38 on MM cell lines; assay: CD38 expression on MM cell lines after ATRA; format: cell-based, human; conditions: pretreatment, 50 nM, 48 hours
From the text: Control and ATRA treated samples are shown with black and gray line respectively. Unstained controls are depicted with filled histogram.

[4] = tested on: NK cells; assay: NK cell fratricide assay (viability of NK cells treated with anti-CD38 antibody); format: cell-based, human; conditions: DARA 48 hours with 50 nM ATRA
Experimental: NK function assays. NK cell conjugation assay was performed as previously published and as detailed above. […] Flow-based killing assays were performed as detailed in Supplemental Methods. In brief, CD38^WT or CD38^KO NK cells were co-cultured with CFSE-labeled target MM cells for 4 or 24 hours in the presence of 10 μg/ml of DARA or solvent as control.
[…] Viable NK cells (PO-PRO™-1 negative/7-AAD negative) were assessed based on the frequency or absolute number using beads (Becton Dickinson Biosciences).

[5] = tested on: MM cell lines; assay: Flow-based cytotoxicity / ADCC assay; format: cell-based, human
Experimental: NK function assays. NK cell conjugation assay was performed as previously published and as detailed above. To quantify fratricide, CD38^WT and CD38^KO NK cells were each treated with 10 μg/ml of DARA or solvent control for 4 or 24 hours, then stained with PO-PRO™-1 dye (Invitrogen, Eugene, Oreg.) and 7-aminoactinomycin D (7-AAD) (Invitrogen, Eugene, Oreg.)^15. Flow-based killing assays were performed as detailed in Supplemental Methods. In brief, CD38^WT or CD38^KO NK cells were co-cultured with CFSE-labeled target MM cells for 4 or 24 hours in the presence of 10 μg/ml of DARA or solvent as control.
as §1

[6] = tested on: CD38 on NK cells; assay: CD38 expression on NK cells after ex vivo ATRA; format: cell-based, human; conditions: 50 nM, 48 hours
Experimental: (§2) FIGS. 15A-15B show cytotoxicity and DARA-mediated ADCC activity of paired CD38^WT and CD38^KO NK cells against myeloma cell lines pretreated with 50 nM ATRA for 48 hours (mean±SD). […] Frozen peripheral blood mononuclear cells were thawed and analyzed at once. […] Control and ATRA treated samples are shown with black and gray line respectively. Unstained controls are depicted with filled histogram. […] FIGS. 15F-15G Cytotoxicity and DARA-mediated ADCC activity of paired CD38^WT and CD38^KO NK cells against myeloma cell lines in a 48 hour-cytotoxicity assay in the presence of 50 nM ATRA or solvent control. E:T ratio is 0.25:1 for MM.1S and 0.5:1 for KMS-11 (mean±SD).

[7] = tested on: CD38 on NK cells; assay: CD38 expression on PB-NK of APL patients during ATRA treatment; format: in vivo, human; conditions: consolidation therapy, versus prior to treatment
Experimental: as §2

[8] = concurrent treatment of MM and NK cells, 50 nM, 48 hours

Row | Molecule | persistence of decrease in circulating NK cells after discontinuation of treatment [1] | DARA-mediated lysis [2] | CD38 levels on MM target cells [3] | fratricide of CD38^WT NK cells [4] | DARA-mediated ADCC ([5]; MM cells pretreated with ATRA, both CD38^WT and CD38^KO NK cells) | DARA-mediated ADCC of CD38^KO NK cells [5, 8] | DARA-mediated ADCC of CD38^WT NK cells [5, 8] | direct cytotoxicity of CD38^WT and paired CD38^KO NK cells ([5]; concurrent treatment, 50 nM, 48 hours) | CD38 levels on CD38^KO NK cells [6] | CD38 levels on CD38^WT NK cells [6] | CD38 on PB-NK of patients [7]
1 | DARA: monoclonal antibody targeting CD38 | 3-6 months | no DARA-mediated lysis |  |  |  |  |  |  |  |  | 
2 | CC1=C(/C=C/C(C)=C/C=C/C(C)=C/C(=O)O)C(C)(C)CCC1 [ATRA, all-trans retinoic acid] |  |  | up-regulates CD38 levels | enhanced fratricide | improves DARA-mediated ADCC | no impact | significantly impaired | significantly reduced direct cytotoxicity | not on the paired CD38^KO NK cells | up-regulates CD38 levels | significant up-regulation of CD38
